# Test results: patent US10294202B2, “Pyrrolidinones as herbicides” (FMC Corporation, priority 2013, dated 2019)
# Tests used:
# barnyardgrass [1] = assay: Test A pre-/postemergence herbicide test; type: in vivo, Echinochloa crus-galli
# Method in brief: (§1)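 Visual injury ratings, 0 = no effect, 100 = complete control, taken ~10 days after treatment against untreated greenhouse controls. Preemergence: directed soil spray onto seeded loam/sand pots. Postemergence: spray onto plants at one- to two-leaf stage, 2–10 cm tall.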
# crabgrass, large = assay: Test A pre-/postemergence herbicide test; type: in vivo, Digitaria sanguinalis
# Method in brief: as §1
# giant foxtail = assay: Test A pre-/postemergence herbicide test; type: in vivo, Setaria faberii
# Method in brief: as §1
# morningglory = assay: Test A pre-/postemergence herbicide test; type: in vivo, Ipomoea spp.
# Method in brief: as §1
# pigweed = assay: Test A pre-/postemergence herbicide test; type: in vivo, Amaranthus retroflexus
# Method in brief: as §1
# velvetleaf = assay: Test A pre-/postemergence herbicide test; type: in vivo, Abutilon theophrasti
# Method in brief: as §1
# wheat = assay: Test A pre-/postemergence herbicide test; type: in vivo, Triticum aestivum
# Method in brief: as §1
# corn = assay: Test A pre-/postemergence herbicide test; type: in vivo, Zea mays
# Method in brief: as §1
# rice = assay: Test C flooded paddy test; type: in vivo, Oryza sativa; settings: Flood
# Method in brief: (§2)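 Visual injury scored against controls after 13 to 15 days in the greenhouse, using 0 (no effect) to 100 (complete control). Test compounds went straight into paddy water held 3 cm above the soil surface on 2-leaf-stage plants, with that flood depth maintained for the whole test.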
# sedge, umbrella = assay: Test C flooded paddy test; type: in vivo, Cyperus difformis; settings: Flood
# Method in brief: as §2
# ducksalad = assay: Test C flooded paddy test; type: in vivo, Heteranthera limosa; settings: Flood
# Method in brief: as §2
# barnyardgrass [2] = assay: Test C flooded paddy test; type: in vivo, Echinochloa crus-galli; settings: Flood
# Method in brief: as §2
# [3] = Postemergence, 125 g ai/ha, 0 to 100 scale, 0 no effect, 100 complete control
# [4] = Postemergence, 500 g ai/ha, 0 to 100 scale (0 no effect, 100 complete control)
# [5] = Preemergence, 125 g ai/ha, visual rating on 0 to 100 scale (0 no effect, 100 complete control)
# [6] = preemergence, 500 g ai/ha, 0 to 100 scale
# [7] = 62 g ai/ha, scale of 0 to 100 where 0 is no effect and 100 is complete control, 13 to 15 days
# [8] = Postemergence, 1000 g ai/ha, 0 to 100 scale (0 no effect, 100 complete control)
# [9] = Preemergence, 1000 g ai/ha, visual rating on 0 to 100 scale (0 no effect, 100 complete control), approx. 10 days
compound,measurement,setting,value
N#Cc1ccccc1NC(=O)C1C(=O)NCC1c1ccc(Cl)c(Cl)c1 (racemic) [Compound 15],"Plant response rating, Barnyardgrass",barnyardgrass [1]; [3],0
same,"Plant response rating, Barnyardgrass",barnyardgrass [1]; [4],0
same,Barnyardgrass plant response rating,barnyardgrass [1]; [5],0
same,"Plant response rating, Barnyardgrass","barnyardgrass [1]; preemergence, 500 g ai/ha, 0 to 100 scale (0 no effect, 100 complete control)",0
same,"Plant response rating, Crabgrass, Large","crabgrass, large; [3]",0
same,"Plant response rating, Crabgrass, Large","crabgrass, large; [4]",0
same,"Crabgrass, Large plant response rating","crabgrass, large; [5]",60
same,"Plant response rating, Crabgrass, Large","crabgrass, large; [6]",80
same,"Plant response rating, Foxtail, Giant",giant foxtail; [3],0
same,"Plant response rating, Foxtail, Giant",giant foxtail; [4],0
same,"Foxtail, Giant plant response rating",giant foxtail; [5],20
same,"Plant response rating, Foxtail, Giant",giant foxtail; [6],50
same,"Plant response rating, Morningglory",morningglory; [3],0
same,"Plant response rating, Morningglory",morningglory; [4],0
same,Morningglory plant response rating,morningglory; [5],0
same,"Plant response rating, Morningglory",morningglory; [6],0
same,"Plant response rating, Pigweed",pigweed; [3],0
same,"Plant response rating, Pigweed",pigweed; [4],0
same,Pigweed plant response rating,pigweed; [5],0
same,"Plant response rating, Pigweed",pigweed; [6],0
same,"Plant response rating, Velvetleaf",velvetleaf; [3],0
same,"Plant response rating, Velvetleaf",velvetleaf; [4],0
same,Velvetleaf plant response rating,velvetleaf; [5],0
same,"Plant response rating, Velvetleaf",velvetleaf; [6],0
same,"Plant response rating, Wheat",wheat; [3],0
same,"Plant response rating, Wheat",wheat; [4],0
same,Wheat plant response rating,wheat; [5],0
same,"Plant response rating, Wheat",wheat; [6],0
same,"Plant response rating, Corn",corn; [3],0
same,"Plant response rating, Corn",corn; [4],0
same,Corn plant response rating,corn; [5],0
same,"Plant response rating, Corn",corn; [6],0
same,"Plant response rating, Rice",rice; [7],0
same,"Plant response rating, Rice","rice; 250 g ai/ha, scale 0 to 100",0
same,"Plant response rating, Sedge, Umbrella","sedge, umbrella; [7]",0
same,"Plant response rating, Sedge, Umbrella","sedge, umbrella; 250 g ai/ha, scale 0 to 100",0
same,"Plant response rating, Ducksalad",ducksalad; [7],0
same,"Plant response rating, Ducksalad","ducksalad; 250 g ai/ha, scale 0 to 100",0
same,"Plant response rating, Barnyardgrass",barnyardgrass [2]; [7],0
same,"Plant response rating, Barnyardgrass","barnyardgrass [2]; 250 g ai/ha, scale 0 to 100",0
O=C1NCC(c2ccc(Cl)c(Cl)c2)C1C(=O)Nc1ccccc1C(F)(F)F (racemic) [Compound 26],"Plant response rating, Barnyardgrass",barnyardgrass [1]; [8],70
same,"Plant response rating, Barnyardgrass",barnyardgrass [1]; [9],70
same,"Plant response rating, Crabgrass, Large","crabgrass, large; [8]",60
same,"Plant response rating, Crabgrass, Large","crabgrass, large; [9]",90
same,"Plant response rating, Foxtail, Giant",giant foxtail; [8],70
same,"Plant response rating, Foxtail, Giant",giant foxtail; [9],90
same,"Plant response rating, Morningglory",morningglory; [8],0
same,"Plant response rating, Morningglory",morningglory; [9],0
same,"Plant response rating, Pigweed",pigweed; [8],0
same,"Plant response rating, Pigweed",pigweed; [9],0
same,"Plant response rating, Velvetleaf",velvetleaf; [8],0
same,"Plant response rating, Velvetleaf",velvetleaf; [9],0
same,"Plant response rating, Wheat",wheat; [8],0
same,"Plant response rating, Wheat",wheat; [9],0
same,"Plant response rating, Corn",corn; [8],0
same,"Plant response rating, Corn",corn; [9],0
same,"Plant response rating, Rice",rice; [7],0
same,"Plant response rating, Rice","rice; 250 g ai/ha, scale 0 to 100",0
same,"Plant response rating, Sedge, Umbrella","sedge, umbrella; [7]",0
same,"Plant response rating, Sedge, Umbrella","sedge, umbrella; 250 g ai/ha, scale 0 to 100",0
same,"Plant response rating, Ducksalad",ducksalad; [7],0
same,"Plant response rating, Ducksalad","ducksalad; 250 g ai/ha, scale 0 to 100",80
same,"Plant response rating, Barnyardgrass",barnyardgrass [2]; [7],0
same,"Plant response rating, Barnyardgrass","barnyardgrass [2]; 250 g ai/ha, scale 0 to 100",0
O=C1NCC(c2ccc(Cl)c(Cl)c2)C1C(=O)Nc1cccc(F)c1 (racemic) [Compound 27],"Plant response rating, Barnyardgrass",barnyardgrass [1]; [8],70
same,"Plant response rating, Barnyardgrass",barnyardgrass [1]; [9],70
same,"Plant response rating, Crabgrass, Large","crabgrass, large; [8]",70
same,"Plant response rating, Crabgrass, Large","crabgrass, large; [9]",90
same,"Plant response rating, Foxtail, Giant",giant foxtail; [8],60
same,"Plant response rating, Foxtail, Giant",giant foxtail; [9],90
same,"Plant response rating, Morningglory",morningglory; [8],0
same,"Plant response rating, Morningglory",morningglory; [9],0
same,"Plant response rating, Pigweed",pigweed; [8],0
same,"Plant response rating, Pigweed",pigweed; [9],0
same,"Plant response rating, Velvetleaf",velvetleaf; [8],0
same,"Plant response rating, Velvetleaf",velvetleaf; [9],0
same,"Plant response rating, Wheat",wheat; [8],0
same,"Plant response rating, Wheat",wheat; [9],0
same,"Plant response rating, Corn",corn; [8],0
same,"Plant response rating, Corn",corn; [9],0
same,"Plant response rating, Rice",rice; [7],0
same,"Plant response rating, Rice","rice; 250 g ai/ha, scale 0 to 100",0
same,"Plant response rating, Sedge, Umbrella","sedge, umbrella; [7]",0
same,"Plant response rating, Sedge, Umbrella","sedge, umbrella; 250 g ai/ha, scale 0 to 100",0
same,"Plant response rating, Ducksalad",ducksalad; [7],0
same,"Plant response rating, Ducksalad","ducksalad; 250 g ai/ha, scale 0 to 100",30
same,"Plant response rating, Barnyardgrass",barnyardgrass [2]; [7],0
same,"Plant response rating, Barnyardgrass","barnyardgrass [2]; 250 g ai/ha, scale 0 to 100",0
O=C1NCC(c2ccc(F)c(F)c2)C1C(=O)Nc1ccc(F)cc1F (racemic) [Compound 23],"Plant response rating, Barnyardgrass",barnyardgrass [1]; [8],90
same,"Plant response rating, Barnyardgrass",barnyardgrass [1]; [9],90
same,"Plant response rating, Crabgrass, Large","crabgrass, large; [8]",80
same,"Plant response rating, Crabgrass, Large","crabgrass, large; [9]",90
same,"Plant response rating, Foxtail, Giant",giant foxtail; [8],80
same,"Plant response rating, Foxtail, Giant",giant foxtail; [9],90
same,"Plant response rating, Morningglory",morningglory; [8],0
same,"Plant response rating, Morningglory",morningglory; [9],0
same,"Plant response rating, Pigweed",pigweed; [8],0
same,"Plant response rating, Velvetleaf",velvetleaf; [8],40
same,"Plant response rating, Velvetleaf",velvetleaf; [9],40
same,"Plant response rating, Wheat",wheat; [8],0
same,"Plant response rating, Wheat",wheat; [9],0
same,"Plant response rating, Corn",corn; [8],0
same,"Plant response rating, Corn",corn; [9],0
same,"Plant response rating, Rice",rice; [7],0
same,"Plant response rating, Rice","rice; 250 g ai/ha, scale 0 to 100",0
same,"Plant response rating, Sedge, Umbrella","sedge, umbrella; [7]",0
same,"Plant response rating, Sedge, Umbrella","sedge, umbrella; 250 g ai/ha, scale 0 to 100",30
same,"Plant response rating, Ducksalad",ducksalad; [7],30
same,"Plant response rating, Ducksalad","ducksalad; 250 g ai/ha, scale 0 to 100",100
same,"Plant response rating, Barnyardgrass",barnyardgrass [2]; [7],0
same,"Plant response rating, Barnyardgrass","barnyardgrass [2]; 250 g ai/ha, scale 0 to 100",0
